In patent publication US11440913B2, “Aminoimidazopyridazines as kinase inhibitors” (BRISTOL-MYERS SQUIBB COMPANY, priority 2017, dated 2022):
Structures can show the parent of a compound that is named as a salt. Where two headings read alike, the source gives them in different places.

Legend:
[1] = tested on: MLKL phosphorylation in HT29-L23 human colorectal adenocarcinoma cells; assay: MLKL Phosphorylation High-Content Assay; assay type: cell-based; conditions: 6 h, necroptosis induced with TNFα, SMAC mimetic and Z-VAD, read-out: pMLKL (IC50)
How it was run: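 HT29-L23 cells pretreated 30 min at 37 °C with compound (6.25 to 0.106 μM final), then necroptosis induced with TNFα 35 ng/mL, SMAC mimetic 700 nM and Z-VAD 140 nM for 6 h. Fixed cells immunostained for MLKL pS358 and imaged; IC50 and Ymax from 4-parameter logistic fit.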

[2] = molecular target: His-GST-TVMV-hRIPK1(1-324) (Homo sapiens (Human), UniProt Q13546); assay: RIPK1 HTRF Binding Assay; conditions: HTRF binding, 1 h at rt; read-out: RIPK1 (IC50)
How it was run: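 HTRF probe-displacement binding: 1 nM His-GST-TVMV-hRIPK1(1-324) (baculovirus construct), 90.6 nM probe, 0.2 nM anti-GST-Tb in 20 mM HEPES, 10 mM MgCl2, 0.015% Brij-35, 4 mM DTT, 0.05 mg/mL BSA. Incubated 1 h at rt; FRET 520/495 nm ratio, inhibition relative to DMSO-only wells.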

Chain of His-GST-TVMV-hRIPK1(1-324) (Q13546 1-324): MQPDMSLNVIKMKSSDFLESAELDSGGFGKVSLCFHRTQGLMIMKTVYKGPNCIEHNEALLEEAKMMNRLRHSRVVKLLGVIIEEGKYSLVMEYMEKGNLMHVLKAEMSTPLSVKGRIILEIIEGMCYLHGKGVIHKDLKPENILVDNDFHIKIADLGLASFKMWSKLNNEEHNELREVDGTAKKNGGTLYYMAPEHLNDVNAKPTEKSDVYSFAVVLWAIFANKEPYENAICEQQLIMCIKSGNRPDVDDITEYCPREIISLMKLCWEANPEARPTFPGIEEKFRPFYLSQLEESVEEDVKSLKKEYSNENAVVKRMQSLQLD

Molecule | IC50 ([1]; Homo sapiens) | IC50 [2] | IC50 [1]
CC(=O)Nc1cn2nc(-c3ccc(Cl)c(C(=O)NCc4cc(F)ccc4C(=O)N4CCC(F)(F)C4)c3)ccc2n1 [Example 387, 2-chloro-N-{[2-(3,3-difluoropyrrolidine-1-carbonyl)-5-fluorophenyl]methyl}-5-{2-acetamidoimidazo [1,2-b]pyridazin-6-yl}benzamide] | 5 nM | 8 nM | 
CC(=O)Nc1cn2nc(-c3cc(C(=O)NCc4cc(C(F)(F)F)ccc4F)cc(F)c3C)ccc2n1 [Example 372, 3-{2-acetamidoimidazo [1,2-b]pyridazin-6-yl}-5-fluoro-N-{[2-fluoro-5-(trifluoromethyl)phenyl]methyl}-4-methylbenzamide] | 122 nM | 13 nM | 
CC(=O)Nc1cn2nc(-c3ccc(Cl)c(C(=O)NCC[C@@H](O)c4ccc(Cl)cc4)c3)ccc2n1 [Example 386, 2-chloro-N-[(3R)-3-(4-chlorophenyl)-3-hydroxypropyl]-5-{2-acetamidoimidazo [1,2-b]pyridazin-6-yl}benzamide] | 13 nM | 5 nM | 
N-[(1R)-1-[2-fluoro-5- (trifluoromethyl)- phenyl]ethyl]-2- methyl-5-(2-{2-[4- (trifluoromethyl)piperidin-1- yl]acetamido}imidazo[1,2- b]pyridazin-6-yl)pyridine-3- carboxamide [Example 331] |  | 42 nM | 68 nM
COc1ncc(-c2ccc3nc(NC(C)=O)cn3n2)cc1C(=O)NCc1c(F)ccc(F)c1OC [Example 141, N-[(3,6-difluoro-2-methoxyphenyl)methyl]-5-{2-acetamidoimidazo[1,2-b]pyridazin-6-yl}-2-methoxypyridine-3-carboxamide] | 256 nM | 97 nM | 
CC(=O)OCC(=O)Nc1cn2nc(-c3cnc(C)c(C(=O)N[C@H](C)c4cc(OC(F)(F)F)ccc4F)c3)ccc2n1 [Example 342, {[6-(5-{[(1R)-1-[2-fluoro-5-(trifluoromethoxy)-phenyl]ethyl]-carbamoyl}-6-methylpyridin-3-yl)imidazo[1,2-b]pyridazin-2-yl]carbamoyl}-methyl acetate] | 142 nM | 13 nM | 
COc1ncc(-c2ccc3nc(NC(=O)C(C)(C)O)cn3n2)cc1C(=O)NCc1cccc(F)c1OCC1CC1 [Example 15, N-{[2-(cyclopropylmethoxy)-3-fluorophenyl]methyl}-5-[2-(2-hydroxy-2-methylpropanamido)imidazo[1,2-b]pyridazin-6-yl]-2-methoxypyridine-3-carboxamide] | 198 nM | 83 nM | 
COc1nc(C)c(-c2ccc3nc(NC(C)=O)cn3n2)cc1C(=O)NCc1cc(OC(F)(F)F)ccc1F [Example 311, 5-{2-acetamidoimidazo[1,2-b]pyridazin-6-yl}-N-{[2-fluoro-5-(trifluoromethoxy)phenyl]methyl}-2-methoxy-6-methylpyridine-3-carboxamide, TFA] |  | 6 nM | 4 nM
COc1ncc(-c2ccc3nc(NC(C)=O)cn3n2)cc1C(=O)NCc1ncccc1OC(C)C1CC1 (centres unmarked) [Example 136, N-{[3-(1-cyclopropylethoxy)pyridin-2-yl]methyl}-5-{2-acetamidoimidazo[1,2-b]pyridazin-6-yl}-2-methoxypyridine-3-carboxamide] | 100 nM | 17 nM | 
[2H]C([2H])([2H])Oc1nc(C)c(-c2ccc3nc(NC(C)=O)cn3n2)cc1C(=O)NCc1cc(F)cc(F)c1O[C@H]1CCOC1 [Example 171, N-({3,5-difluoro-2-[(3S)-oxolan-3-yloxy]phenyl}methyl)-5-{2-acetamidoimidazo[1,2-b]pyridazin-6-yl}-2-(deutero)methoxy-6-methylpyridine-3-carboxamide] | 3 nM | 3 nM | 
Cc1ncc(-c2ccc3nc(NC(=O)C(C)(C)C#N)cn3n2)cc1C(=O)N[C@H](C)c1cc(OC(F)(F)F)ccc1F [Example 27, 5-[2-(2-cyano-2,2-dimethylacetamido)imidazo[1,2-b]pyridazin-6-yl]-N-[(1R)-1-[2-fluoro-5-(trifluoromethoxy)phenyl]ethyl]-2-methylpyridine-3-carboxamide] | 108 nM | 109 nM | 
[2H]C([2H])(NC(=O)c1cc(-c2ccc3nc(NC(=O)CO)cn3n2)c(C)nc1C)c1cc(C(F)(F)F)ccc1F [Example 93, N-{[2-fluoro-5-(trifluoro-methyl)phenyl](deutero)methyl}-5-[2-(2-hydroxy-acetamido)imidazo[1,2-b]pyridazin-6-yl]-2,6-dimethylpyridine-3-carboxamide] | 129 nM | 50 nM | 
COc1ncc(-c2ccc3nc(NC(=O)C(C)(C)C#N)cn3n2)cc1C(=O)NCc1cc(F)cc(F)c1OCC1CC1 [Example 8, 5-[2-(2-Cyano-2,2-dimethylacetamido)imidazo[1,2-b]pyridazin-6-yl]-N-{[2-(cyclopropylmethoxy)-3,5-difluorophenyl]methyl}-2-methoxypyridine-3-carboxamide] | 41 nM | 39 nM | 
COc1ncc(-c2ccc3nc(NC(=O)C(C)(C)O)cn3n2)cc1C(=O)NCc1cc(OC(F)(F)F)ccc1F [Example 36, N-{[2-fluoro-5-(trifluoromethoxy)phenyl]methyl}-5-[2-(2-hydroxy-2-methylpropanamido)imidazo[1,2-b]pyridazin-6-yl]-2-methoxypyridine-3-carboxamide] | 92 nM | 48 nM | 
[2H]C([2H])([2H])Oc1ncc(-c2ccc3nc(NC(C)=O)cn3n2)cc1C(=O)NCc1cc(OC(F)(F)F)ccc1F [Example 58, 5-{2-acetamidoimidazo[1,2-b]pyridazin-6-yl}-N-{[2-fluoro-5-(trifluoromethoxy)phenyl]methyl}-2-(D3)methoxypyridine-3-carboxamide] | 21 nM | 14 nM | 
CC(=O)Nc1nc2ccc(-c3cnc(C)c(C(=O)NCc4cc(C(F)(F)F)ccc4F)c3)nn2c1C [Example 252, 5-{2-acetamido-3-methylimidazo[1,2-b]pyridazin-6-yl}-N-{[2-fluoro-5-(trifluoromethyl)phenyl]methyl}-2-methylpyridine-3-carboxamide] | 133 nM | 27 nM | 
COc1ncc(-c2ccc3nc(NC(C)=O)cn3n2)cc1C(=O)NCc1cccc(OC(F)(F)F)c1 [Example 126, 5-{2-acetamidoimidazo[1,2-b]pyridazin-6-yl}-2-methoxy-N-{[3-(trifluoro-methoxy)phenyl]methyl}pyridine-3-carboxamide] | 78 nM | 73 nM | 
COc1nc(C)c(-c2ccc3nc(NC(C)=O)cn3n2)cc1C(=O)NC(C)c1cccc(OC(F)(F)F)c1 (centres unmarked) [Example 292, 5-{2-acetamidoimidazo[1,2-b]pyridazin-6-yl}-2-methoxy-6-methyl-N-{1-[3-(trifluoromethoxy)phenyl]ethyl}pyridine-3-carboxamide] |  | 24 nM | 37 nM
COCC(=O)Nc1cn2nc(-c3cnc(OC)c(C(=O)NCc4ccccc4OC(F)(F)F)c3)ccc2n1 [Example 3, 2-methoxy-5-[2-(2-methoxyacetamido)imidazo[1,2-b]pyridazin-6-yl]-N-{[2-(trifluoromethoxy)phenyl]methyl}pyridine-3-carboxamide] | 295 nM | 30 nM | 
COc1ncc(-c2ccc3nc(NC(C)=O)cn3n2)cc1C(=O)NCc1cc(F)cc(F)c1OC1COC1 [Example 115, N-{[3,5-difluoro-2-(oxetan-3-yloxy)phenyl]methyl}-5-{2-acetamidoimidazo[1,2-b]pyridazin-6-yl}-2-methoxypyridine-3-carboxamide] | 65 nM | 12 nM | 
COc1ncc(-c2ccc3nc(NC(C)=O)cn3n2)cc1C(=O)NCc1cc(OCC2CC2)ccc1F [Example 149, N-{[5-(cyclopropylmethoxy)-2-fluorophenyl]methyl}-5-{2-acetamidoimidazo[1,2-b]pyridazin-6-yl}-2-methoxypyridine-3-carboxamide] | 74 nM | 16 nM | 
COc1ncc(-c2ccc3nc(NC(C)=O)cn3n2)cc1C(=O)NCc1cc(OC(F)(F)F)ccc1F [Example 154, 5-{2-acetamidoimidazo[1,2-b]pyridazin-6-yl}-N-{[2-fluoro-5-(trifluoromethoxy)phenyl]methyl}-2-methoxypyridine-3-carboxamide] | 15 nM | 13 nM | 
CC(=O)Nc1cn2nc(-c3cnc(C)c(C(=O)NCc4ccc(F)c(F)c4OCC4CC4)c3)ccc2n1 [Example 209, N-{[2-(cyclopropylmethoxy)-3,4-difluorophenyl]methyl}-5-{2-acetamidoimidazo [1,2-b]pyridazin-6-yl}-2-methylpyridine-3-carboxamide] | 202 nM | 133 nM | 
CC(=O)Nc1cn2nc(-c3cncc(C(=O)NCc4ccccc4OC4CCCC4)c3)ccc2n1 [Example 21, N-{[2-(cyclopentyloxy)phenyl]methyl}-5-{2-acetamidoimidazo[1,2-b]pyridazin-6-yl}pyridine-3-carboxamide] | 29 nM | 10 nM | 
COc1ncc(-c2ccc3nc(NC(C)=O)cn3n2)cc1C(=O)NCc1cccc(F)c1OCC1CC1 [Example 151, N-{[2-(cyclopropylmethoxy)-3-fluorophenyl]methyl}-5-{2-acetamidoimidazo[1,2-b]pyridazin-6-yl}-2-methoxypyridine-3-carboxamide, TFA] |  | 8 nM | 6 nM
